In PubChem BioAssay AID248 (DTP/NCI, 2004):
“And” between values parts separate entries of the source, which are not always exact repeats. Identical values can stand only once. Inconclusive results and toxic doses are left out. Cut-off read from the data, not from the text of the source: active = T/C of 150% or more; inactive = T/C below 125%. Square brackets hold non-standard residues; d marks the D form. Peptide text beside a SMILES is read from it. * marks the point of attachment. ξ: configuration not given here. Octanoyl = CCCCCCCC(=O)*; OBn = c1ccc(CO*)cc1; ξP = O=C(O)C1CCCN1

Tested on: L1210 leukemia ip in BDF1 mice, survival T/C
Test: NCI In Vivo Anticancer Drug Screen. Data for tumor model L1210 Leukemia (intraperitoneal) in B6D2F1 (BDF1) mice
Conditions: endpoint: mean survival time, higher = longer survival
Method in brief: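 Antitumor effect is assessed in tumor-bearing animals. Survival in the compound arm is compared with a vehicle-dosed control arm and expressed as their quotient.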

[1] = dose: 100.0 mg/kg/injection, schedule: Q01DX001 (ip), vehicle: carboxymethylcellulose (CMC)
[2] = dose: 200.0 mg/kg/injection, schedule: Q01DX001 (ip), vehicle: carboxymethylcellulose (CMC)
[3] = dose: 400.0 mg/kg/injection, schedule: Q01DX001 (ip), vehicle: carboxymethylcellulose (CMC)
[4] = dose: 100.0 mg/kg/injection, schedule: Q04DX003 (ip), vehicle: Klucel (hydroxypropylcellulose) (HPC)
[5] = dose: 200.0 mg/kg/injection, schedule: Q04DX003 (ip), vehicle: Klucel (hydroxypropylcellulose) (HPC)
[6] = dose: 400.0 mg/kg/injection, schedule: Q04DX003 (ip), vehicle: Klucel (hydroxypropylcellulose) (HPC)
[7] = dose: 100.0 mg/kg/injection, schedule: Q04DX002 (ip), vehicle: Klucel (hydroxypropylcellulose) (HPC)
[8] = dose: 200.0 mg/kg/injection, schedule: Q04DX002 (ip), vehicle: Klucel (hydroxypropylcellulose) (HPC)
[9] = dose: 400.0 mg/kg/injection, schedule: Q04DX002 (ip), vehicle: Klucel (hydroxypropylcellulose) (HPC)
[10] = dose: 100.0 mg/kg/injection, schedule: Q01DX001 (ip), vehicle: other
[11] = dose: 200.0 mg/kg/injection, schedule: Q01DX001 (ip), vehicle: other
[12] = dose: 400.0 mg/kg/injection, schedule: Q01DX001 (ip), vehicle: other
[13] = dose: 100.0 mg/kg/injection, schedule: Q01DX009 (ip), vehicle: saline with Tween-80
[14] = dose: 100.0 mg/kg/injection, schedule: Q04DX003 (ip), vehicle: saline with Tween-80
[15] = dose: 200.0 mg/kg/injection, schedule: Q01DX009 (ip), vehicle: saline with Tween-80
[16] = dose: 200.0 mg/kg/injection, schedule: Q04DX003 (ip), vehicle: saline with Tween-80
[17] = dose: 400.0 mg/kg/injection, schedule: Q04DX003 (ip), vehicle: saline with Tween-80
[18] = dose: 400.0 mg/kg/injection, schedule: Q01DX009 (ip), vehicle: saline with Tween-80

Measured: T/C

COc1ccc(Cl)cc1NS(=O)(=O)c1ccc(Cl)cc1[N+](=O)[O-]
inactive: dose: 100.0 mg/kg/injection, schedule: Q01DX009 (ip), vehicle: saline 96 % of control | dose: 200.0 mg/kg/injection, schedule: Q01DX009 (ip), vehicle: saline 94 % of control | dose: 400.0 mg/kg/injection, schedule: Q01DX009 (ip), vehicle: saline 100 % of control

O=C(O)c1cc(OCc2ccccc2)cc(OCc2ccccc2)c1
inactive: dose: 25.0 mg/kg/injection, schedule: Q01DX009 (ip), vehicle: carboxymethylcellulose (CMC) 102 % of control and 105 % of control | dose: 50.0 mg/kg/injection, schedule: Q01DX009 (ip), vehicle: carboxymethylcellulose (CMC) 101 % of control and 91 % of control | [1] 101 % of control and 103 % of control | dose: 100.0 mg/kg/injection, schedule: Q01DX009 (ip), vehicle: carboxymethylcellulose (CMC) 92 % of control and 112 % of control and 91 % of control | dose: 100.0 mg/kg/injection, schedule: Q04DX002 (ip), vehicle: carboxymethylcellulose (CMC) 92 % of control and 88 % of control | dose: 100.0 mg/kg/injection, schedule: Q04DX003 (ip), vehicle: carboxymethylcellulose (CMC) 95 % of control and 97 % of control | [2] 96 % of control and 107 % of control | dose: 200.0 mg/kg/injection, schedule: Q04DX002 (ip), vehicle: carboxymethylcellulose (CMC) 95 % of control and 97 % of control | dose: 200.0 mg/kg/injection, schedule: Q04DX003 (ip), vehicle: carboxymethylcellulose (CMC) 99 % of control and 91 % of control | [3] 93 % of control and 96 % of control | dose: 400.0 mg/kg/injection, schedule: Q04DX002 (ip), vehicle: carboxymethylcellulose (CMC) 92 % of control and 97 % of control | dose: 400.0 mg/kg/injection, schedule: Q04DX003 (ip), vehicle: carboxymethylcellulose (CMC) 92 % of control and 100 % of control

CN(C)c1ccc(/C=C/c2cc[n+](C)cc2)cc1
inactive: dose: 8.0 mg/kg/injection, schedule: Q04DX003 (ip), vehicle: saline with Tween-80 100 % of control | dose: 16.0 mg/kg/injection, schedule: Q04DX003 (ip), vehicle: saline with Tween-80 95 % of control

CC(=O)OCC(=O)C1CCC2(C)C3=C(CCC12C)C1(C)CCC(=O)C(C)(C)C1CC3 (stereo unspecified)
inactive: dose: 50.0 mg/kg/injection, schedule: Q01DX001 (sc), vehicle: steriod suspending solution 105 % of control | dose: 100.0 mg/kg/injection, schedule: Q01DX001 (sc), vehicle: steriod suspending solution 94 % of control | dose: 200.0 mg/kg/injection, schedule: Q01DX001 (sc), vehicle: steriod suspending solution 100 % of control | dose: 400.0 mg/kg/injection, schedule: Q01DX001 (sc), vehicle: steriod suspending solution 100 % of control

O=C(O)C1CCC2CCCCC2[N-]1.O=C(O)C1CCC2CCCCC2[N-]1.[Zn+2] (stereo unspecified)
inactive: dose: 25.0 mg/kg/injection, schedule: Q01DX009 (ip), vehicle: Klucel (hydroxypropylcellulose) (HPC) 92 % of control | dose: 50.0 mg/kg/injection, schedule: Q01DX009 (ip), vehicle: Klucel (hydroxypropylcellulose) (HPC) 87 % of control | dose: 100.0 mg/kg/injection, schedule: Q01DX009 (ip), vehicle: Klucel (hydroxypropylcellulose) (HPC) 86 % of control | [4] 94 % of control | [5] 89 % of control | [6] 89 % of control

CC1C(C)(C)P(=O)(OCCOP2(=O)C(C)(C)C(C)C2(C)C)C1(C)C (stereo unspecified)
inactive: dose: 100.0 mg/kg/injection, schedule: Q04DX003 (ip), vehicle: saline 100 % of control | dose: 200.0 mg/kg/injection, schedule: Q04DX003 (ip), vehicle: saline 94 % of control

N#Cc1cccc2c(/C=N\NC(N)=S)nccc12
inactive: [7] 106 % of control | [8] 95 % of control | [9] 87 % of control

Cc1ccc(S(=O)(=O)OCC2OCOC2C2OCOC2COS(=O)(=O)c2ccc(C)cc2)cc1 (stereo unspecified)
inactive: dose: 56.25 mg/kg/injection, schedule: Q01DX009 (ip), vehicle: carboxymethylcellulose (CMC) 95 % of control | [1] 95 % of control | dose: 112.5 mg/kg/injection, schedule: Q01DX009 (ip), vehicle: carboxymethylcellulose (CMC) 89 % of control | [2] 96 % of control | dose: 225.0 mg/kg/injection, schedule: Q01DX009 (ip), vehicle: carboxymethylcellulose (CMC) 87 % of control | [3] 90 % of control

CC(=O)Nc1nc(/C=C/C(=O)CCl)c(CCCCc2ccccc2)c(=O)[nH]1
inactive: dose: 50.0 mg/kg/injection, schedule: Q01DX001 (ip), vehicle: Klucel (hydroxypropylcellulose) (HPC) 93 % of control | dose: 100.0 mg/kg/injection, schedule: Q01DX001 (ip), vehicle: Klucel (hydroxypropylcellulose) (HPC) 102 % of control | dose: 200.0 mg/kg/injection, schedule: Q01DX001 (ip), vehicle: Klucel (hydroxypropylcellulose) (HPC) 96 % of control

CCCCCCCCCCCCCCCCCC(=O)OCC1OC(OC2(COC(=O)CCCCCCCCCCCCCCCCC)OC(COC(=O)CCCCCCCCCCCCCCCCC)C(OC(=O)CCCCCCCCCCCCCCCCC)C2OC(=O)CCCCCCCCCCCCCCCCC)C(OC(=O)CCCCCCCCCCCCCCCCC)C(OC(=O)CCCCCCCCCCCCCCCCC)C1OC(=O)CCCCCCCCCCCCCCCCC (stereo unspecified)
inactive: [10] 93 % of control | [11] 90 % of control | [12] 97 % of control

NC(=O)N=Nc1ccccc1
inactive: [10] 105 % of control | [11] 91 % of control | [12] 98 % of control

O=C(O)c1ccc(Oc2nc3ccccc3s2)cc1
inactive: [13] 102 % of control | [14] 111 % of control | [15] 120 % of control | [16] 97 % of control | [17] 86 % of control

Cn1c2ccccc2c(=O)c2c(O)cc3c(c21)C=C(Br)C(C)(C)O3
inactive: dose: 50.0 mg/kg/injection, schedule: Q01DX001 (ip), vehicle: carboxymethylcellulose (CMC) 88 % of control | [1] 93 % of control | [2] 98 % of control | [3] 90 % of control

Cc1ncc(C(O)c2ccc(Cl)cc2)n1Cc1ccccc1 (stereo unspecified)
inactive: [4] 100 % of control | [5] 94 % of control | [6] 104 % of control

Cc1ccc(S(=O)(=O)NC(c2ccccc2)(c2ccccc2)c2ccccc2)cc1
inactive: [13] 96 % of control | dose: 100.0 mg/kg/injection, schedule: Q04DX003 (ip), vehicle: acetone 96 % of control | [15] 88 % of control | dose: 200.0 mg/kg/injection, schedule: Q04DX003 (ip), vehicle: acetone 95 % of control | [18] 93 % of control | dose: 400.0 mg/kg/injection, schedule: Q04DX003 (ip), vehicle: acetone 96 % of control

Cc1ccc(NC(=S)Nc2ccccc2F)cc1
inactive: dose: 100.0 mg/kg/injection, schedule: Q01DX001 (ip), vehicle: saline with Tween-80 94 % of control and 100 % of control | dose: 100.0 mg/kg/injection, schedule: Q04DX002 (ip), vehicle: saline with Tween-80 100 % of control and 104 % of control | dose: 200.0 mg/kg/injection, schedule: Q01DX001 (ip), vehicle: saline with Tween-80 98 % of control and 100 % of control | dose: 200.0 mg/kg/injection, schedule: Q04DX002 (ip), vehicle: saline with Tween-80 95 % of control | dose: 400.0 mg/kg/injection, schedule: Q01DX001 (ip), vehicle: saline with Tween-80 96 % of control and 103 % of control | dose: 400.0 mg/kg/injection, schedule: Q04DX002 (ip), vehicle: saline with Tween-80 92 % of control and 104 % of control

O=C(Nc1ccc([N+](=O)[O-])cc1Cl)N(CCO)C1CCCCC1
inactive: [13] 96 % of control | [14] 102 % of control | [15] 106 % of control | [16] 101 % of control | [18] 116 % of control | [17] 90 % of control

CCCCCCCC(=O)N1CCCC1C(=O)NCC(=O)NCC(=O)OCc1ccccc1 (stereo not drawn) (Octanoyl-[ξP]-Gly-Gly-OBn)
inactive: [7] 94 % of control | [8] 86 % of control | [9] 105 % of control

CC(=O)Nc1nc(Cl)c2ncn(C3OC(COC(=O)c4ccccc4)C(OC(=O)c4ccccc4)C3OC(=O)c3ccccc3)c2n1 (stereo unspecified)
inactive: dose: 75.0 mg/kg/injection, schedule: Q01DX001 (ip), vehicle: saline 95 % of control | dose: 100.0 mg/kg/injection, schedule: Q01DX001 (ip), vehicle: saline 103 % of control | dose: 150.0 mg/kg/injection, schedule: Q01DX001 (ip), vehicle: saline 98 % of control | dose: 200.0 mg/kg/injection, schedule: Q01DX001 (ip), vehicle: saline 101 % of control | dose: 300.0 mg/kg/injection, schedule: Q01DX001 (ip), vehicle: saline 95 % of control | dose: 400.0 mg/kg/injection, schedule: Q01DX001 (ip), vehicle: saline 95 % of control
